pIC50: −log10 of the molar value.
Legend:
[1] = target: hGYS1 enzyme (recombinant hGYS1/GN1 protein) (Homo sapiens (Human), UniProt P13807); test: GYS1 coupled enzyme assay (PK/LDH); assay type: biochemical; details: hGYS1/GN1 50 nM, UDP-Glucose 0.8 mM, G6P 1 mM; geometric mean of at least 2 runs
[2] = system: hGYS1 enzyme / glycogen synthesis in HeLa cells; test: GYS1 cell based assay (glycogen synthesis, Glucose-glo); design: species or system human; details: Homo sapiens, HeLa, 24 h, 24 h incubation, 20 mM glucose, geometric mean of at least 2 runs
In short: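 HeLa cells starved 24 h in medium containing only 1× Glutamax were plated onto compound in medium with 20 mM glucose (1% DMSO final) for 24 h, 37 °C, 5% CO2. Acid lysates were Tris-quenched, glucoamylase-digested (pH 5.3, 1 h, 37 °C) and read by Glucose-glo luminescence. IC50 came from Hill fits, as geometric mean of ≥2 runs.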

[3] = target: hGYS2 enzyme (recombinant hGYS2/GN1 protein) (Homo sapiens (Human), UniProt P54840); test: GYS2 coupled enzyme assay (PK/LDH); assay type: biochemical; details: geometric mean of at least 2 assay runs on separate days, read-out: Avg_IC50
Sequence of hGYS2 enzyme (recombinant hGYS2/GN1 protein) (P54840 whole entry): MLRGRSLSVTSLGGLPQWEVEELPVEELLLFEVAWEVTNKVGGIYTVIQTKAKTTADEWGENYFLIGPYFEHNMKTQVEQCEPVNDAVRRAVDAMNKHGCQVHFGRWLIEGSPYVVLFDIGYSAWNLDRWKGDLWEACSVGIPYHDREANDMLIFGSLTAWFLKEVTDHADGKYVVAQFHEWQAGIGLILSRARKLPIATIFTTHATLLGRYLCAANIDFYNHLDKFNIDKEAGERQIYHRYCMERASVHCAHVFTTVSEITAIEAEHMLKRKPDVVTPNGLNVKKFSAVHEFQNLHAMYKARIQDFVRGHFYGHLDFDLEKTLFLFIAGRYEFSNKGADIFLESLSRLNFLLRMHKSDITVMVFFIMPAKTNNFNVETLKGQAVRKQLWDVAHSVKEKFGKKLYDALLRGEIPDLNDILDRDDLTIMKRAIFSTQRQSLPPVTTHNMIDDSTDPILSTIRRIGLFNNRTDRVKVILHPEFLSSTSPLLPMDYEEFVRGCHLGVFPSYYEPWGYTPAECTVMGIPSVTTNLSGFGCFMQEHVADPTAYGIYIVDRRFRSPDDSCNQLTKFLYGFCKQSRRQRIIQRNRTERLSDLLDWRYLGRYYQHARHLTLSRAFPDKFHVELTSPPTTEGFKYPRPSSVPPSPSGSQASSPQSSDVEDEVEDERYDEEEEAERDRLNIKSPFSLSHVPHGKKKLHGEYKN
Sequence of hGYS2 enzyme (recombinant hGYS2/GN1 protein) (P46976 whole entry partner): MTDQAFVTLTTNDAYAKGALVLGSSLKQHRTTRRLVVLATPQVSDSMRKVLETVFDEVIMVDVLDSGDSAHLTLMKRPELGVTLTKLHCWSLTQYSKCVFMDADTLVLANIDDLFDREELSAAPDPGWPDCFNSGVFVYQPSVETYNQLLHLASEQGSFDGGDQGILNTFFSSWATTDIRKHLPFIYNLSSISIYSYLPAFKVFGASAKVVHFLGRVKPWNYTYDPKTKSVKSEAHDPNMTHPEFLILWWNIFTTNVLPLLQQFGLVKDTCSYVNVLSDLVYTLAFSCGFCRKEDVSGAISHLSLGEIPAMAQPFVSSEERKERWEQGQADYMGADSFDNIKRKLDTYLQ
In short: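 hGYS2/GN1 200 nM; UDP-Glc 2 mM; glycogen 0.2%; G6P 2 mM; PEP 2 mM, NADH 0.6 mM, PK/LDH 20 U/mL. 50 mM Tris pH 7.5, MgCl2, KCl, BSA, TCEP, 2.5% DMSO. Kinetic A340, 10 min. IC50 = geomean of ≥2 runs.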

Sequence of hGYS1 enzyme (recombinant hGYS1/GN1 protein) (P13807 whole entry): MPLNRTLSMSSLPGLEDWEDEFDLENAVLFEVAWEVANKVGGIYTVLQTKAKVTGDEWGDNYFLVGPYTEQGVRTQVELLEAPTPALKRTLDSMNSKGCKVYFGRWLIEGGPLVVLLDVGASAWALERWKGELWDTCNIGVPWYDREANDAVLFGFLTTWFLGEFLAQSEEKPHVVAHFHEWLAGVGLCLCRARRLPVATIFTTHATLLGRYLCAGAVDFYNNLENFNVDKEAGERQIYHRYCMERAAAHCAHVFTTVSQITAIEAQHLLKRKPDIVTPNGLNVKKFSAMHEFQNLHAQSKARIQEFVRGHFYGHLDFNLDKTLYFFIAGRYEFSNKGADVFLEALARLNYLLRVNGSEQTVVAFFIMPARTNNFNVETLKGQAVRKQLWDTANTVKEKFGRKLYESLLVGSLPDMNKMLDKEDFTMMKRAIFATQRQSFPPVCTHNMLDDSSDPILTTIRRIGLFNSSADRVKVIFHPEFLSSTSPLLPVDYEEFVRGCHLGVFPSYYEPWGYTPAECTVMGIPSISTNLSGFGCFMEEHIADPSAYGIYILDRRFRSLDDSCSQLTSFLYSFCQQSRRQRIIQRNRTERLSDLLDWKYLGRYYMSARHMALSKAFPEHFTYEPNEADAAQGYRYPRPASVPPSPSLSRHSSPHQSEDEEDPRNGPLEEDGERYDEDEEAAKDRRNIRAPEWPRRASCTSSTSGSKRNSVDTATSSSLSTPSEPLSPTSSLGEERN
Sequence of hGYS1 enzyme (recombinant hGYS1/GN1 protein) (P46976 whole entry partner): as the sequence (P46976 whole entry partner) above

SMILES	pIC50 [1]	pIC50 [2]	pIC50 [3]
CC(C)c1ccc([C@@H](NC(=O)[C@@H]2C[C@@H](F)CN2C(=O)CNC(=O)N2CCC2)c2ccccc2)nc1 [Compound 265, (2S,4R)-1-{2-[(azetidine-1-carbonyl)amino]acetyl}-4-fluoro-N-[(S)-phenyl[5-(propan-2-yl)pyridin-2-yl]methyl]pyrrolidine-2-carboxamide]	7.39	6.08	< 4.00
CC(C)c1ccc([C@@H](NC(=O)[C@@H]2C[C@@H](F)CN2C(=O)Cc2nn(C)c(=O)o2)c2ccccc2)nc1 [Compound 266, (2S,4R)-4-fluoro-1-[2-(4-methyl-5-oxo-4,5-dihydro-1,3,4-oxadiazol-2-yl)acetyl]-N-[(S)-phenyl[5-(propan-2-yl)pyridin-2-yl]methyl]pyrrolidine-2-carboxamide]	7.05	5.91	< 4.00
CC(C)c1ccc([C@@H](NC(=O)[C@@H]2C[C@@H](F)CN2C(=O)Cc2ncco2)c2ccccc2)nc1 [Compound 270, (2S,4R)-4-fluoro-1-[2-(1,3-oxazol-2-yl)acetyl]-N-[(S)-phenyl[5-(propan-2-yl)pyridin-2-yl]methyl]pyrrolidine-2-carboxamide]	7.02	5.85	< 4.00
Cc1coc(CC(=O)N2C[C@H](F)C[C@H]2C(=O)N[C@@H](c2ccccc2)c2ccc(C(C)C)cn2)n1 [Compound 272]	7.27	6.15	< 4.00
CC(C)c1ccc([C@@H](NC(=O)[C@@H]2C[C@@H](F)CN2C(=O)[C@H](C)NC(=O)N(C)C)c2ccccc2)nc1 [Compound 273, (2S,4R)-1-[(2S)-2-[(dimethylcarbamoyl)amino]propanoyl]-4-fluoro-N-[(S)-phenyl[5-(propan-2-yl)pyridin-2-yl]methyl]pyrrolidine-2-carboxamide]	6.83	5.75	< 4.00
CC(C)c1ccc([C@@H](NC(=O)[C@@H]2C[C@@H](F)CN2C(=O)[C@@H](C)NC(=O)N(C)C)c2ccccc2)nc1 [Compound 274, (2S,4R)-1-[(2R)-2-[(dimethylcarbamoyl)amino]propanoyl]-4-fluoro-N-[(S)-phenyl[5-(propan-2-yl)pyridin-2-yl]methyl]pyrrolidine-2-carboxamide]	6.58	5.49	< 4.00
Cc1nn(CC(=O)N2C[C@H](F)C[C@H]2C(=O)N[C@@H](c2ccccc2)c2ccc(C(C)C)cn2)c(=O)o1 [Compound 275, (2S,4R)-4-fluoro-1-[2-(5-methyl-2-oxo-2,3-dihydro-1,3,4-oxadiazol-3-yl)acetyl]-N-N-[(S)-phenyl[5-(propan-2-yl)pyridin-2-yl]methyl]pyrrolidine-2-carboxamide]	7.12	5.98	< 4.00
CC(C)c1ccc([C@@H](NC(=O)[C@@H]2[C@H]3C[C@H]3CN2C(=O)Cc2cnn[nH]2)c2ccccc2)nc1 [Compound 279, (1S,2S,5R)-N-[(S)-phenyl[5-(propan-2-yl)pyridin-2-yl]methyl]-3-[2-(1H-1,2,3-triazol-5-yl)acetyl]-3-azabicyclo[3.1.0]hexane-2-carboxamide]	6.63	5.64	< 4.00
CC(C)c1ccc([C@@H](NC(=O)[C@@H]2CC[C@H](C)N2C(=O)Cc2cnn[nH]2)c2ccccc2)nc1 [Compound 280, (2S,5S)-5-methyl-N-[(S)-phenyl[5-(propan-2-yl)pyridin-2-yl]methyl]-1-[2-(1H-1,2,3-triazol-5-yl)acetyl]pyrrolidine-2-carboxamide]	6.83	5.82	< 4.00
CC(C)c1ccc([C@@H](NC(=O)[C@@H]2C[C@@H](F)CN2C(=O)CNC(=O)N2CCN(CC(F)(F)F)CC2)c2ccccc2)nc1 [Compound 281, N-{2-[(2S,4R)-4-fluoro-2-{[(S)-phenyl[5-(propan-2-yl)pyridin-2-yl]methyl]carbamoyl}pyrrolidin-1-yl]-2-oxoethyl}-4-(2,2,2-trifluoroethyl)piperazine-1-carboxamide]	7.23	5.81	< 4.00
CC(C)c1ccc([C@@H](NC(=O)[C@@H]2C[C@@H](F)CN2C(=O)CNC(=O)N2CCN(CC3CC3)CC2)c2ccccc2)nc1 [Compound 282, 4-(cyclopropylmethyl)-N-{2-[(2S,4R)-4-fluoro-2-{[(S)-phenyl[5-(propan-2-yl)pyridin-2-yl]methyl]carbamoyl}pyrrolidin-1-yl]-2-oxoethyl}piperazine-1-carboxamide]	7.31	5.38	< 4.00

Stronger by pIC50 [1], values ahead:

pIC50 [1]	pIC50 [2]	pIC50 [3]	SMILES
7.74	6.08	< 4.00	CC(C)c1ccc([C@@H](NC(=O)[C@@H]2C[C@@H](F)CN2C(=O)Cc2[nH]nnc2C(F)(F)F)c2ccccc2)nc1 [Compound 268, (2S,4R)-4-fluoro-N-[(S)-phenyl[5-(propan-2-yl)pyridin-2-yl]methyl]-1-{2-[4-(trifluoromethyl)-1H-1,2,3-triazol-5-yl]acetyl}pyrrolidine-2-carboxamide]
7.85	6.62	< 4.00	Cc1nccc(NCC(=O)N2C[C@H](F)C[C@H]2C(=O)N[C@@H](c2ccccc2)c2ccc(C(C)C)cn2)n1 [Compound 269, (2S,4R)-4-fluoro-1-{2-[(2-methylpyrimidin-4-yl)amino]acetyl}-N-[(S)-phenyl[5-(propan-2-yl)pyridin-2-yl]methyl]pyrrolidine-2-carboxamide]
7.44	6.06	< 4.00	Cc1cnc(CC(=O)N2C[C@H](F)C[C@H]2C(=O)N[C@@H](c2ccccc2)c2ccc(C(C)C)cn2)o1 [Compound 271, (2S,4R)-4-fluoro-1-[2-(5-methyl-1,3-oxazol-2-yl)acetyl]-N-[(S)-phenyl[5-(propan-2-yl)pyridin-2-yl]methyl]pyrrolidine-2-carboxamide]
7.70	6.40	< 4.00	CC(C)c1ccc([C@@H](NC(=O)[C@@H]2C[C@@H](F)CN2C(=O)Cn2ncc(N3CCC3)n2)c2ccccc2)nc1 [Compound 276, (2S,4R)-1-{2-[4-(azetidin-1-yl)-2H-1,2,3-triazol-2-yl]acetyl}-4-fluoro-N-[(S)-phenyl[5-(propan-2-yl)pyridin-2-yl]methyl]pyrrolidine-2-carboxamide]
7.51	6.19	< 4.00	CC(C)c1ccc([C@@H](NC(=O)[C@@H]2C[C@@H](F)CN2C(=O)Cn2ncc(N3CC(F)(F)C3)n2)c2ccccc2)nc1 [Compound 277, (2S,4R)-1-{2-[4-(3,3-difluoroazetidin-1-yl)-2H-1,2,3-triazol-2-yl]acetyl}-4-fluoro-N-[(S)-phenyl[5-(propan-2-yl)pyridin-2-yl]methyl]pyrrolidine-2-carboxamide]
7.96	6.64	< 4.00	CCN(CC)c1cnn(CC(=O)N2C[C@H](F)C[C@H]2C(=O)N[C@@H](c2ccccc2)c2ccc(C(C)C)cn2)n1 [Compound 278, (2S,4R)-1-{2-[4-(diethylamino)-2H-1,2,3-triazol-2-yl]acety}-4-fluoro-N-N-[(S)-phenyl[5-(propan-2-yl)pyridin-2-yl]methyl]pyrrolidine-2-carboxamide]

Reference: patent publication US11814367B2, “Inhibitors of glycogen synthase 1 (GYS1) and methods of use thereof” (Maze Therapeutics, Inc., priority 2021, dated 2023)
